# Patent US11453632B2, “1-phenyl-2-phenylethane derivative” (KAO CORPORATION, priority 2018, dated 2022)
# Experiments:
# ERα LBD = target: T1, ERα LBD (Homo sapiens, UniProt P03372); test: Ability to bind to ERα: pBIND-ERα LBD / GAL4 luciferase reporter in HEK293 cells; assay type: cell-based; parameters: key: firefly luciferase / Renilla luciferase luminescence ratio; details: negative control 0.00847035
# T1 construct: host or cells: HEK293
# T1 sequence (P03372 311-547 limits assumed): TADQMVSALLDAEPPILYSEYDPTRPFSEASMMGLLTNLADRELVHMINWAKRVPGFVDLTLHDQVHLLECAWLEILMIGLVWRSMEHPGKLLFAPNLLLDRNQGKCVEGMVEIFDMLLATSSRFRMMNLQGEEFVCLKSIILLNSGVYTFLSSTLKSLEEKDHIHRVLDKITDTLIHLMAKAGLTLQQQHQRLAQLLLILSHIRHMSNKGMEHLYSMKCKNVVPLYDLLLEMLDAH
# Description: (§1) A human kidney-derived cell line HEK293 was cultured (37° C., 5% CO2) in Dulbecco's modified Eagle medium (hereinafter, abbreviated to DMEM) containing 10% (v/v) fetal bovine serum (FBS) and penicillin/streptomycin.
# (§2) 2) Measurement of Binding Activity Against ERs
# (§3) Specifically, HEK293 cells were inoculated at a cell density of 4.0×10^4 cells/well to a 96-well plate. After 12 hours therefrom, the medium was replaced with a culture solution (DMEM containing 5% (v/v) charcoal-treated serum). The cells were cotransfected with pBIND-ERα for the expression of ERα LBD or pBIND-ERβ for the expression of ERβ LBD (Promega Corp.) and pGL4.35[luc2P/9XGAL4UAS/Hygro](Promega Corp.) using Lipofectamine 2000 (Invitrogen Corp.) according to the protocol attached to the product. 24 hours after transfection, the medium was replaced with a culture solution containing a test sample, followed by culture for another 24 hours. The activity measurement of firefly luciferase (index for the ligand binding activity of ER) and Renilla reniformis luciferase (index for the transfection efficiency of the plasmids) was carried out using Dual-Glo™ Luciferase Assay System (Promega Corp.) according to the attached protocol. The luminescence intensity of the firefly luciferase was divided by the luminescence intensity of the Renilla reniformis luciferase to calculate a relative light unit (RLU).
# ERβ LBD = target: T2, ERβ LBD (Homo sapiens, UniProt Q92731); test: Ability to bind to ERβ: pBIND-ERβ LBD / GAL4 luciferase reporter in HEK293 cells; assay type: cell-based; parameters: key: RLU = firefly luminescence / Renilla luminescence; details: negative control 0.0118997
# T2 construct: host or cells: HEK293
# T2 sequence (Q92731 264-498 limits assumed): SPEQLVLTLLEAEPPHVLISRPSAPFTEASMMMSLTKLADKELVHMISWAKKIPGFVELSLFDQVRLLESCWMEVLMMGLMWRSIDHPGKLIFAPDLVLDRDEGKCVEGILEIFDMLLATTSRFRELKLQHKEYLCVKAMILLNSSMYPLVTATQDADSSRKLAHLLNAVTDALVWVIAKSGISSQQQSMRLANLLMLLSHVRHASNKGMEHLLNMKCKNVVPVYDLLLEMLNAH
# Description: This evaluation system is a system exploiting difference in the sequence of the ligand binding domain (LBD) between ERα and ERβ (J Endocrinol 163: 379-383 (1999)), and enables selective activation of ERβ to be evaluated by determining the binding of a ligand to LBD and the activation of ER.
# as §1, §2
# as §3, with “This measurement was carried out according to the method described in JP-B-5990058. Specifically,” for “Specifically,”
# ERα = target: T3, ERα (Homo sapiens, UniProt P03372); test: Ability to activate transcription mediated by ERα (pcDNA3-ERα, pERE luciferase, HEK293 cells); assay type: cell-based; details: negative control 0.004573
# T3 construct: host or cells: HEK293
# T3 sequence (P03372 1-595): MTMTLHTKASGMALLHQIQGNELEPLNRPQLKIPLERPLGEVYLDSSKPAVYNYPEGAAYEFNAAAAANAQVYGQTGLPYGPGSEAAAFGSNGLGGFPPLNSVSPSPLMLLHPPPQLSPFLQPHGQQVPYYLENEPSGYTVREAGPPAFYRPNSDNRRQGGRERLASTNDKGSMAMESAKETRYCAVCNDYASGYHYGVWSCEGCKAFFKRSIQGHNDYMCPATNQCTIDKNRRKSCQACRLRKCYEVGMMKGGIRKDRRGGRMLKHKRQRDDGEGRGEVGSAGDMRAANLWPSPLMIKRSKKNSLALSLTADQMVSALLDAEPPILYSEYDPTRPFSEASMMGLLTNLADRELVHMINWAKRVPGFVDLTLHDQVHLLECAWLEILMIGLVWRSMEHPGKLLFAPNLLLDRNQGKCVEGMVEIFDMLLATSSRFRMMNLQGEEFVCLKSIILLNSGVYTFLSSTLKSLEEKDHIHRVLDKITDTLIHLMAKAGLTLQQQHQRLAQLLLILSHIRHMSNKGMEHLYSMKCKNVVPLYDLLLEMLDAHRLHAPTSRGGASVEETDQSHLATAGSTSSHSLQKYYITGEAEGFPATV
# Description: (§4) 1) Experimental Method (Measurement of Transcriptional Activity Mediated by ERs)
# (§5) HEK293 cells were inoculated at a cell density of 4.0×10^4 cells/well to a 96-well plate. After 12 hours therefrom, the medium was replaced with a culture solution (DMEM containing 5% (v/v) charcoal-treated serum). The cells were cotransfected with pcDNA3-ERα or pcDNA3-ERβ (Promega Corp.) and pERE and pRL-CMV (Promega Corp.) using Lipofectamine 2000 (Invitrogen Corp.) according to the protocol attached to the product. 24 hours after transfection, the medium was replaced with a culture medium containing a test sample, followed by culture for another 24 hours. Then, luciferase activity was measured using Dual-Glo™ Luciferase Assay System (Promega Corp.) according to the attached protocol. The luminescence intensity of firefly luciferase (index for the ability to activate transcription mediated by ERE) was divided by the luminescence intensity of Renilla reniformis luciferase (index for the transfection efficiency of the plasmids) to calculate a relative light unit (RLU).
# ERβ = target: T4, ERβ (Homo sapiens, UniProt Q92731); test: Ability to activate transcription mediated by ERβ (pcDNA3-ERβ, pERE luciferase, HEK293 cells); assay type: cell-based; details: negative control 0.001475
# T4 construct: host or cells: HEK293
# T4 sequence (Q92731 whole entry): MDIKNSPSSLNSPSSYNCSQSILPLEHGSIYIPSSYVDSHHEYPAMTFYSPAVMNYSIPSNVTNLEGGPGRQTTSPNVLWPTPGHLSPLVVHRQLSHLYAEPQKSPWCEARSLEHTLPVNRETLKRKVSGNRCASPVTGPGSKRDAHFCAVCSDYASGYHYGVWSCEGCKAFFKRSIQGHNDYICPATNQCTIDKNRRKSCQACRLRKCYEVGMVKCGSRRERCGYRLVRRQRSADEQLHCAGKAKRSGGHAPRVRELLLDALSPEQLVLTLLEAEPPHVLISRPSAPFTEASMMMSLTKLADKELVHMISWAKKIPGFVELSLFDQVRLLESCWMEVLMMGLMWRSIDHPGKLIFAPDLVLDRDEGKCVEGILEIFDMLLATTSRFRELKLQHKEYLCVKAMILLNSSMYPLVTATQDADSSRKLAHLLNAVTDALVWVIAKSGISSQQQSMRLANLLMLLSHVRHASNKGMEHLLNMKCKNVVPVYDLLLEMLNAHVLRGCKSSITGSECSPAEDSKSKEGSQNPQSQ
# Description: as §4, §5
# [1] = system: uterus of ovariectomized rat; test: Uterus weight in ovariectomized (OVX) rat; assay type: in vivo; details: 4 μg/kg/day subcutaneous, vs negative solvent group
# Description: 8-week-old female Crl:CD (SD) rats were obtained from Charles River Laboratories Japan, Inc. and individually identified by the ear punching method on the receipt date. Then, an acclimatization period was established for 1 week. The animals were raised in a rearing room under a set environment involving a temperature of 22±3° C., a humidity of 50±20%, air ventilation from 13 to 17 times/hour, and a lighting time from 8:00 to 20:00. During the acclimatization period, the rats were allowed to freely ingest solid feed CRF-1 (Oriental Yeast Co., Ltd.). Since the feeding with CRF-1, the rats were allowed to freely ingest customized feed AIN-93G (Oriental Yeast Co., Ltd.) free from components derived from soybeans.
# On the end date of acclimatization and the following day, the flank cavity was opened under isoflurane anesthesia to harvest the right and left ovaries including fallopian tubes. Other non-OVX rats were subjected to only opening and suture (sham surgery). Immediately thereafter, an antibiotic was subcutaneously administered at a dose of 100 μl/animal. After the surgery, the sham surgery or OVX animals were given customized feed and raised for approximately 1 week.
# From 1.5 hours before a shift from the light phase to the dark phase (18:30), a negative solvent (DMSO) or a test substance was subcutaneously administered at a dose of 0.5 ml/kg to the back of the neck according to Table 3 described below using a syringe and an injection needle.
# After the completion of all procedures of measurement and analysis, the rats were euthanized by blood letting under isoflurane anesthesia, and the uterus was harvested. Wet weights were measured.
# Skin temperatures differed largely among individuals, and the Smirnov-Grubbs test was conducted in order to exclude outliers beforehand. Results of measuring tail skin temperatures and results of measuring uterus weights were statistically analyzed by testing using the Dunnett's test.
Molecule,"relative light unit (RLU), ligand binding activity ERα (ERα LBD; 0.01 nM)","relative light unit (RLU), ligand binding activity ERα (ERα LBD; 0.1 nM)","relative light unit (RLU), ligand binding activity ERα (ERα LBD; 1 nM)","relative light unit (RLU), ligand binding activity ERα (ERα LBD; 10 nM)","relative light unit (RLU), ligand binding activity ERα (ERα LBD; 100 nM)","relative light unit (RLU), ligand binding activity ERβ (ERβ LBD; 0.01 nM)","relative light unit (RLU), ligand binding activity ERβ (ERβ LBD; 0.1 nM)","relative light unit (RLU), ligand binding activity ERβ (ERβ LBD; 1 nM)","relative light unit (RLU), ligand binding activity ERβ (ERβ LBD; 10 nM)","relative light unit (RLU), ligand binding activity ERβ (ERβ LBD; 100 nM)","relative light unit (RLU), transcription activation ERα (ERα; 0.1 pM)","relative light unit (RLU), transcription activation ERα (ERα; 1 pM)","relative light unit (RLU), transcription activation ERα (ERα; 10 pM)","relative light unit (RLU), transcription activation ERα (ERα; 100 pM)","relative light unit (RLU), transcription activation ERα (ERα; 1000 pM)","relative light unit (RLU), transcription activation ERα (ERα; 10000 pM)","relative light unit (RLU), transcription activation ERβ (ERβ; 0.01 pM)","relative light unit (RLU), transcription activation ERβ (ERβ; 0.1 pM)","relative light unit (RLU), transcription activation ERβ (ERβ; 1 pM)","relative light unit (RLU), transcription activation ERβ (ERβ; 10 pM)",also measured
"Oc1ccc(CC(C=C(F)F)c2ccc(O)cc2)cc1 (stereo not drawn) [Compound 7, 4,4′-(4,4-difluorobut-3-ene-1,2-diyl)diphenol]",0.02799,0.0373,0.02919,0.06191,1.588,0.06046,0.9104,1.877,2.074,2.408,0.006825,0.008059,0.008285,0.01621,0.04026,0.04776,0.002068,0.002153,0.00383,0.01191,"relative light unit (RLU), transcription activation ERβ (ERβ; 100 pM): 0.02336; relative light unit (RLU), transcription activation ERβ (ERβ; 1000 pM): 0.03253; relative light unit (RLU), transcription activation ERβ (ERβ; 10000 pM): 0.03471"
"4-(4,4-difluoro-2-(4-hydroxyphenyl)but-3-en-1-yl)-3,5 [Compound 18-F]",0.03608,0.1312,1.177,2.968,3.391,0.6452,2.101,2.317,2.025,2.304,0.01194,0.01337,0.01971,0.04067,0.06395,0.06152,0.003231,0.00681,0.01281,0.03479,"relative light unit (RLU), transcription activation ERβ (ERβ; 100 pM): 0.03642; relative light unit (RLU), transcription activation ERβ (ERβ; 1000 pM): 0.03659; relative light unit (RLU), transcription activation ERβ (ERβ; 10000 pM): 0.03706"
"Oc1ccc(CC(c2ccc(O)cc2)c2ccn[nH]2)cc1 (stereo not drawn) [Compound 12, 4,4′-(1-(1H-pyrazol-5-yl)ethane-1,2-diyl)diphenol]",0.006803,0.02077,0.01753,0.01191,0.008685,0.01836,0.01732,0.03073,0.02066,0.026,–,–,–,–,–,–,–,–,–,–,–
"C[C@]12CC[C@@H]3c4ccc(O)cc4CC[C@H]3[C@@H]1CC[C@@H]2O [E2, estradiol, reference compound]",–,–,–,–,–,–,–,–,–,–,–,–,–,–,–,–,–,–,–,–,uterus wet weight (FIG. 6) [1]: significantly increased
